Measured values reported in paper PMC12383646, “Identification of Two Critical Contact Residues in a Pathogenic Epitope from Tetranectin for Monoclonal Antibody Binding and Preparation of Single-Chain Variable Fragments” (Biomolecules, 2025).

Experiments:
12F1 mAb [1] = test: Indirect ELISA (iELISA) of 12F1 mAb on coated P5-5-BSA and P5-5 mutant-BSA; assay type: binding, mouse; conditions: peptide-BSA conjugate coated at 10 µg/mL; 12F1 mAb 1:2000; compared with WT P5-5 and negative control BSA; six repeated experiments (Figure 4)
Method: The P5-5 and mutants were conjugated to BSA by the EDC conjugating method. Firstly, the P5-5 and other 9 mutant peptide solutions (4 mg/mL in 0.1 M MES buffer, pH 4.7) were separately mixed with BSA solution (10 mg/mL in 0.1 M MES buffer, pH 4.7). Then, the reaction mixtures were all supplemented with 100 μL of EDC solution (10 mg/mL in deionized water) and incubated at 25 °C for 2 h to facilitate conjugation. The haptens were coupled to BSA at a molar ratio of 10:1 [14]. After a two-hour reaction, the resulting mixtures were subjected to dialysis against 0.01 M phosphate-buffered saline (PBS, pH 7.4) for 48 h. The final products were then stored at −20 °C for the following applications. The P5-5 and mutant conjugates were examined using native gel electrophoresis, and the concentration of the complete antigen was determined using the BCA protein assay kit.
Indirect ELISA (iELISA): To identify the key binding epitopes of the prepared mAb to the P5-5 epitope, P5-5-BSA, and P5-5 mutant-BSA, the antigens were coated onto 96-well plates at a concentration of 10 µg/mL [15]. Subsequently, purified 12F1 mAb diluted at 1:2000 in blocking buffer was added to the wells after blocking and washing. Following another washing step, goat anti-mouse IgG-HRP at a 1:5000 dilution in blocking buffer was added and incubated at 37 °C for 1 h. To commence color development, 100 μL of 3,3,5,5-Tetramethylbenzidine (TMB) solution was added to each well, followed by 100 μL of 2 M H2SO4. The absorbance at 450 nm was measured using a microplate reader.

12F1 mAb [2] = test: Indirect competitive ELISA (ic-ELISA) of P5-5 and mutant peptides against 12F1 mAb; assay type: binding, mouse; conditions: coating P5-5-OVA 5 μg/mL; free peptide competitor 0.61 ng/mL-20 μg/mL; pre-mixed with 12F1 mAb 37 °C 30 min; compared with WT P5-5 (Figure 5)
Method: Indirect competitive ELISA (ic-ELISA): the inhibition ability of 12F1 mAb against P5-5 and its mutants was assessed through icELISA [16]. A coating antigen P5-5-OVA solution at a concentration of 5 μg/mL was prepared and dispensed (100 μL) into each well of a 96-well ELISA plate. The plates were then left to incubate at 4 °C overnight. Following washing, 5% (w/v) PBSM was added to each well and incubated at 37 °C for 2 h. The synthesized peptides of P5-5 and its variants were prepared as 1 mg/mL stock solution (dissolved in 0.01M PBS, pH 7.4). These peptides were then serially diluted in PBSM to concentrations of 20 μg/mL, 10 μg/mL, 5 μg/mL, 2.5 μg/mL, 1.25 μg/mL, 625 ng/mL, 312.5 ng/mL, 156.25 ng/mL, 78.13 ng/mL, 39.06 ng/mL, 19.53 ng/mL, 9.77 ng/mL, 4.88 ng/mL, 2.44 ng/mL, 1.22 ng/mL, and 0.61 ng/mL for the competitor in the ic-ELISA assay. Subsequently, 12F1 mAb was mixed thoroughly with the diluted solutions of P5-5 and its mutants at equal volume at 37 °C for 30 min incubation and reaction. Following this, each well was impressed by 100 μL of the mixture, which was then incubated at 37 °C for one hour. The succeeding stages, which included the addition of HRP-goat anti-mouse serum, TMB substrate solution, and stop solution, were carried out as described earlier. The measurement of the OD value was then taken under 450 nm. The IC50 values of the 12F1 monoclonal antibody against synthesized P5-5 and nine other mutant peptides were determined using the four-parameter logistic equations in Prism 9.0 GraphPad software (version 9.0 GraphPad Software), following the established methodology.

“NDALAEYLRQ [Y5A, P5-5 mutant, position 5 (Tyr) mutated to alanine]” was tested, and the “binding activity of 12F1 mAb (indirect ELISA, OD 450 nm)” value (shortened to “binding activity of 12F1 mAb”) (12F1 mAb [1]) was “weak binding signals” and the “antigen inhibitory capability / antibody binding in ic-ELISA” value (12F1 mAb [2]) was “significantly reduced compared to the WT P5-5”.
“NDALYEALRQ [Y7A, P5-5 mutant, position 7 (Tyr) mutated to alanine]” was tested, and the “binding activity of 12F1 mAb” value (12F1 mAb [1]) was “weak binding signals” and the “antigen inhibitory capability / antibody binding in ic-ELISA” value (12F1 mAb [2]) was “significantly reduced compared to the WT P5-5”.
With “NDALYAYLRQ [E6A, P5-5 mutant, position 6 (Glu) mutated to alanine]” the “binding activity of 12F1 mAb” value (12F1 mAb [1]) was “weak binding signals” and the “antigen inhibitory capability / antibody binding in ic-ELISA” value (12F1 mAb [2]) was “significantly reduced compared to the WT P5-5”.
“NAALYEYLRQ [DA2, P5-5 mutant, position 2 (Asp) mutated to alanine]” was tested, and the “binding activity of 12F1 mAb” value (12F1 mAb [1]) was “weak binding signals” and the “antigen inhibitory capability / antibody binding in ic-ELISA” value (12F1 mAb [2]) was “significantly reduced compared to the WT P5-5”.
“NDALYEYARQ [L8A, P5-5 mutant, position 8 (Leu) mutated to alanine]” was tested, and the “binding activity of 12F1 mAb” value (12F1 mAb [1]) was “significantly reduced to levels similar to the negative control” and the “antigen inhibitory capability / antibody binding in ic-ELISA” value (12F1 mAb [2]) was “entirely lost their ability to bind antibodies”.
“NDAAYEYLRQ [L4A, P5-5 mutant, position 4 (Leu) mutated to alanine]” was tested, and the “binding activity of 12F1 mAb” value (12F1 mAb [1]) was “significantly reduced to levels similar to the negative control” and the “antigen inhibitory capability / antibody binding in ic-ELISA” value (12F1 mAb [2]) was “entirely lost their ability to bind antibodies”.
